Test results as given in ChEMBL document CHEMBL4330105, “Identification of novel azaindazole CCR1 antagonist clinical candidates” (Bioorg Med Chem Lett, 2019).

Assays:
Format in all cases: ADME, organism-based
[1] = Volume of distribution at steady state in Sprague-Dawley rat at 10 mg/kg, po or 1 mg/kg, iv; settings: in vivo, read-out: Vdss
[2] = Oral bioavailability in Sprague-Dawley rat at 10 mg/kg; settings: in vivo
[3] = Clearance in Sprague-Dawley rat at 10 mg/kg, po or 1 mg/kg, iv relative to hepatic blood flow; settings: in vivo

Vd [1]: 1.2 L/kg | bioavailability [2]: 29% | CL [3]: 8%
SMILES: CS(=O)(=O)c1cc(CNC(=O)c2cncc3c2cnn3-c2ccc(F)cc2)ccn1
